In patent US8697739B2, “Bicyclic acetyl-CoA carboxylase inhibitors and uses thereof” (Novartis AG, priority 2010, dated 2014):

target: T1, human acetyl-CoA carboxylase 2 (ACC2) (Homo sapiens, UniProt O00763); assay: Acetyl-CoA carboxylase enzyme assay (malonyl-CoA formation by LC/MS/MS); format: biochemical; conditions: recombinant human ACC2 (aa 144-2458); read-out: IC50 ACC2
T1 construct: The cDNA encoding amino acids 144 to 2458 of human acetyl-CoA carboxylase 2; made in house; host or cells: Sf9 insect cells (baculovirus, pFastBac1)
T1 sequence (O00763 144-2458): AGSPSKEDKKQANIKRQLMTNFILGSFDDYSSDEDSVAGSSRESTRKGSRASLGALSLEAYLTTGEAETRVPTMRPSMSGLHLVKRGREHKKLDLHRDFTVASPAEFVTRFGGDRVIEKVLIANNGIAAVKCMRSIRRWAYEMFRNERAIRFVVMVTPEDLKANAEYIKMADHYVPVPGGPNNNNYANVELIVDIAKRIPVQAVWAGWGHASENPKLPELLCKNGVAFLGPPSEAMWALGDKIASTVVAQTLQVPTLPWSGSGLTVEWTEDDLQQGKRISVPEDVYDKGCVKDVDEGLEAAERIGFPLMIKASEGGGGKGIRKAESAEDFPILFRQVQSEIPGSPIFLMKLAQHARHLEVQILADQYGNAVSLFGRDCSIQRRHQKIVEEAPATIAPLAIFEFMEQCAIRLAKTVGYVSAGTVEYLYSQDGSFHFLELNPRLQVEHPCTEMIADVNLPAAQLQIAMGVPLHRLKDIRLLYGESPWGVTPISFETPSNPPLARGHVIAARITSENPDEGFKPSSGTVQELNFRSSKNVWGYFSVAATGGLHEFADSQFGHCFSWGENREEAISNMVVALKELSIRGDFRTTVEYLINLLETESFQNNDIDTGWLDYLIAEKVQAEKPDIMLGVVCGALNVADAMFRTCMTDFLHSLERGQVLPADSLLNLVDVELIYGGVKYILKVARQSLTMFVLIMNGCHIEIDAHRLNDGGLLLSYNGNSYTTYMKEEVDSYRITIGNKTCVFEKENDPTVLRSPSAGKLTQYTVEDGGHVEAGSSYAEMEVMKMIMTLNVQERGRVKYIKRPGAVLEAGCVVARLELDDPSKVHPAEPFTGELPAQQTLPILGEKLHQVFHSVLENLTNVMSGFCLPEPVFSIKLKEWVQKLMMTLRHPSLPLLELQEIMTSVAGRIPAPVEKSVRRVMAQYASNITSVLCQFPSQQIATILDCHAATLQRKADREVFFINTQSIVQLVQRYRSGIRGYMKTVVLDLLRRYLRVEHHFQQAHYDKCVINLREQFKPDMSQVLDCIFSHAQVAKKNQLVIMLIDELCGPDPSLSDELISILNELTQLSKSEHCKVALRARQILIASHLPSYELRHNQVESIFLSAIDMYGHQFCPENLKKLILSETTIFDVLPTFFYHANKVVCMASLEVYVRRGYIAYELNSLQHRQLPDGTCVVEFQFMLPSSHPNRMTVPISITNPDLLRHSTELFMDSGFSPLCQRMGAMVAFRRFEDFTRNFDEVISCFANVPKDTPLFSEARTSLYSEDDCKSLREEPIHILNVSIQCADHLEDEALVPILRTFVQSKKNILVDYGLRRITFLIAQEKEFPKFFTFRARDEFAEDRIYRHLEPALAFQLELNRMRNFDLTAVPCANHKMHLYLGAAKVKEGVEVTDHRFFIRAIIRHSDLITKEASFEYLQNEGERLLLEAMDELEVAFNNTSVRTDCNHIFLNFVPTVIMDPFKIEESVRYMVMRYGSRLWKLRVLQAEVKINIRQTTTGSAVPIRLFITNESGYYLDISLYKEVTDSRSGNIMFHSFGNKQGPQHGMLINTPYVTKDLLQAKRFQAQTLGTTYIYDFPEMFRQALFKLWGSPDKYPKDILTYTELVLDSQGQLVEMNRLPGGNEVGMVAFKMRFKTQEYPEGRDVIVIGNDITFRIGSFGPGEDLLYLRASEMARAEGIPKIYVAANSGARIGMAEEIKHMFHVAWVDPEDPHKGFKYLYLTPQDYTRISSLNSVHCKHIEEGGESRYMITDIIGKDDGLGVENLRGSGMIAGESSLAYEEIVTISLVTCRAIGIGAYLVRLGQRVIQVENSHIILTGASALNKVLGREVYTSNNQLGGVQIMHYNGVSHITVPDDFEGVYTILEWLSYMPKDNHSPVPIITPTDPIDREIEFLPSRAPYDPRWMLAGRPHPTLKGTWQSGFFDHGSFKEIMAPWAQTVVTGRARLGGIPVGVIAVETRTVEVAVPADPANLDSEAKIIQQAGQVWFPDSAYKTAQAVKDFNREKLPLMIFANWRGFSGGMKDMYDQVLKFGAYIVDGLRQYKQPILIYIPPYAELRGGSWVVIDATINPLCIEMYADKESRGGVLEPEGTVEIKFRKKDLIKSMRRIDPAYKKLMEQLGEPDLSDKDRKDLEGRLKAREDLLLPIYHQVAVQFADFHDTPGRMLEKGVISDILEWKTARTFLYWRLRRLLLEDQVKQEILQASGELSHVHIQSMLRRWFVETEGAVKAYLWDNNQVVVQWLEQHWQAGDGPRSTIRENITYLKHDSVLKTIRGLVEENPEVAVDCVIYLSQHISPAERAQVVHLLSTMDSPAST
Outline: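 Malonyl-CoA formation was read by LC/MS/MS MRM against a [13C3]-malonyl-CoA internal standard, after acetic acid quench. The enzyme was baculovirus/Sf9-expressed human ACC2 residues 144–2458, given 15 minutes room-temperature compound preincubation in HEPES pH 7.5 buffer with MgCl2, citrate and DTT. Substrate solution held 50 μM acetyl-CoA, 120 μM ATP and 2 mM KHCO3.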

Row | IC50 | SMILES
1 | 10 nM | C[C@@H](NC(=O)[C@H]1CC[C@H](NS(=O)(=O)c2ccc3c(c2)cc(-c2ccccc2)n3C)CC1)c1ccc(F)cc1 [Example 14, (1r,4R)—N—((R)-1-(4-fluorophenyl)ethyl)-4-(1-methyl-2-phenyl-1H-indole-5-sulfonamido)cyclohexanecarboxamide]
2 | 20 nM | COc1ccc(-c2cc3ccc(S(=O)(=O)N[C@H]4CC[C@H](C(=O)N5CCOC[C@@H]5C)CC4)cc3n2C)cc1 [Example 440, 2-(4-methoxyphenyl)-1-methyl-N-((1S,4r)-4-((S)-3-methylmorpholine-4-carbonyl)cyclohexyl)-1H-indole-6-sulfonamide]
3 | 80 nM | CN(C(=O)[C@H]1CC[C@H](NS(=O)(=O)c2ccc3[nH]c(-c4ccccc4)nc3c2)CC1)C1CCCCC1 [Example 618, (1r,4r)-N-cyclohexyl-N-methyl-4-(2-phenyl-1H-benzo[d]imidazole-5-sulfonamido)cyclohexanecarboxamide]
4 | 157 nM | C[C@@H](NC(=O)[C@H]1CC[C@H](NS(=O)(=O)c2cnc3c(c2)N(CC(F)(F)F)CCN3C)CC1)c1ccc(F)cc1 [Example 135, (1r,4R)-N-((R)-1-(4-fluorophenyl)ethyl)-4-(4-methyl-1-(2,2,2-triffuoroethyl)-1,2,3,4-tetrahydropyrido[3,2-b]pyrazine-7-sulfonamido)cyclohexanecarboxamide]
5 | 34100 nM | C[C@@H](NC(=O)[C@H]1CC[C@H](NS(=O)(=O)c2ccc3nc(C(F)(F)F)cn3c2)CC1)c1ccc(F)cc1 [Example 40, (1r,4R)-N-((R)-1-(4-fluorophenyl)ethyl)-4-(2-(trifluoromethyl)imidazo[1,2-a]pyridine-6-sulfonamido)cyclohexanecarboxamide]
6 | > 35000 nM | C[C@@H](NC(=O)[C@H]1CC[C@H](NS(=O)(=O)c2ccc3c(c2)C(NC(=O)C(F)(F)F)CCN3)CC1)c1ccc(F)cc1 (stereo partly drawn) [Example 185, (1r,4R)-N-((R)-1-(4-fluorophenyl)ethyl)-4-(4-(2,2,2-trifluoroacetamido)-1,2,3,4-tetrahydroquinoline-6-sulfonamido)cyclohexanecarboxamide]
7 | 385 nM | CCOc1ccc2cc(S(=O)(=O)N[C@H]3CC[C@H](C(=O)N4CCNC[C@@H]4C(=O)OC)CC3)ccc2n1 [Example 236, (R)-methyl 1-((1r,4R)-4-(2-ethoxyquinoline-6-sulfonamido)cyclohexanecarbonyl)piperazine-2-carboxylate]
8 | 138 nM | C[C@@H](NC(=O)[C@H]1CC[C@H](NS(=O)(=O)c2cnc3c(c2)N(C)CCN3C)CC1)c1ccc(F)cc1 [Example 34, (1r,4R)-4-(1,4-dimethyl-1,2,3,4-tetrahydropyrido[3,2-b]pyrazine-7-sulfonamido)-N—((R)-1-(4-fluorophenyl)ethyl)cyclohexanecarboxamide]
9 | 35 nM | C[C@H]1CCCCN1C(=O)[C@H]1CC[C@H](NS(=O)(=O)c2ccc3cc(-c4ccccc4)n(C)c3c2)CC1 [Example 405, 1-methyl-N-((1S,4r)-4-((S)-2-methylpiperidine-1-carbonyl)cyclohexyl)-2-phenyl-1H-indole-6-sulfonamide]
10 | 240 nM | CC(NC(=O)[C@H]1CC[C@H](NS(=O)(=O)c2cnc3ccccc3c2)CC1)c1ccc(F)cc1F (stereo partly shown) [Example 67, (1r,4r)-N-(1-(2,4-difluorophenyl)ethyl)-4-(quinoline-3-sulfonamido)cyclohexanecarboxamide]
11 | 35 nM | COC(=O)CCc1ccc(-c2c(Cl)c3ccc(S(=O)(=O)N[C@H]4CC[C@H](C(=O)N5CCCCC5)CC4)cc3n2C)cc1 [Example 360, methyl 3-(4-(3-chloro-1-methyl-6-(N-((1r,4r)-4-(piperidine-1-carbonyl)cyclohexyl)sulfamoyl)-1H-indol-2-yl)phenyl)propanoate]
12 | 536 nM | COc1ccc(Nc2nc3cc(S(=O)(=O)Nc4ccc(-c5nnc(C(C)C)o5)cc4)ccc3[nH]2)cc1 [Example 602, N-(4-(5-isopropyl-1,3,4-oxadiazol-2-yl)phenyl)-2-(4-methoxyphenylamino)-1H-benzo[d]imidazole-5-sulfonamide]
13 | 760 nM | COc1ccc(-c2nc3ccc(S(=O)(=O)N[C@H]4CC[C@H](C(=O)OCc5ccccc5)CC4)cc3[nH]2)cc1 [Example 100, (1r,4r)-benzyl 4-(2-(4-methoxyphenyl)-1H-benzo[d]imidazole-6-sulfonamido)cyclohexanecarboxylate]
14 | 50 nM | C[C@@H](NC(=O)[C@H]1CC[C@H](NS(=O)(=O)c2ccc3nc(OCCN(C)C)ccc3c2)CC1)c1ccc(F)cc1 [Example 69, (1r,4R)-4-(2-(2-(dimethylamino)ethoxy)quinoline-6-sulfonamido)-N-((R)-1-(4-fluorophenyl)ethyl)cyclohexanecarboxamide]
15 | 95 nM | Cn1c(-c2ccccc2)cc2ccc(S(=O)(=O)N[C@H]3CC[C@H](C(=O)N4CCCCC4)CC3)cc21 [Example 376, 1-methyl-2-phenyl-N-((1r,4r)-4-(piperidine-1-carbonyl)cyclohexyl)-1H-indole-6-sulfonamide]
16 | 335 nM | C[C@@H](NC(=O)[C@H]1CC[C@H](NS(=O)(=O)c2ccc3c(c2)NC(=O)CC3(C)C)CC1)c1ccc(F)cc1 [Example 195, (1r,4R)-4-(4,4-dimethyl-2-oxo-1,2,3,4-tetrahydroquinoline-7-sulfonamido)-N-((R)-1-(4-fluorophenyl)ethyl)cyclohexanecarboxamide]
17 | 143 nM | O=C([C@H]1CC[C@H](NS(=O)(=O)c2cnc3ccccc3c2)CC1)N1CCNC[C@@H]1c1ccccc1 [Example 85, N-((1S,4r)-4-((S)-2-phenylpiperazine-1-carbonyl)cyclohexyl)quinoline-3-sulfonamide]
18 | 10 nM | CCOc1ccc2cc(S(=O)(=O)N[C@H]3CC[C@](C)(C(=O)N[C@H](C)c4ccc(F)cc4)CC3)ccc2n1 [Example 231, (1r,4R)-4-(2-ethoxyquinoline-6-sulfonamido)-N-((R)-1-(4-fluorophenyl)ethyl)-1-methylcyclohexanecarboxamide]
19 | 20 nM | C[C@H]1CCCCN1C(=O)[C@H]1CC[C@H](NS(=O)(=O)c2ccc3cc(-c4ccc(CCC(=O)O)cc4)n(C)c3c2)CC1 [Example 410, 3-(4-(1-methyl-6-(N-((1S,4r)-4-((S)-2-methylpiperidine-1-carbonyl)cyclohexyl)sulfamoyl)-1H-indol-2-yl)phenyl)propanoic acid]
20 | 15 nM | CC(C)(C)OC(=O)N1CCN(C(=O)[C@H]2CC[C@H](NS(=O)(=O)c3ccc4oc5ccccc5c4c3)CC2)[C@@H](c2ccccc2)C1 [Example 255, (S)-tert-butyl 4-((1r,4S)-4-(dibenzo[b,d]furan-2-sulfonamido)cyclohexanecarbonyl)-3-phenylpiperazine-1-carboxylate]
21 | 58 nM | CC1CN(C(=O)[C@H]2CC[C@H](NS(=O)(=O)c3ccc4[nH]c(-c5ccccc5)nc4c3)CC2)CC(C)O1 (stereo partly shown) [Example 620, N-((1r,4r)-4-(2,6-dimethylmorpholine-4-carbonyl)cyclohexyl)-2-phenyl-1H-benzo[d]imidazole-5-sulfonamide]
22 | 1740 nM | Cc1ccc(-c2nc3ccc(S(=O)(=O)Nc4ccc(C(=O)OC(C)C)cc4)cc3[nH]2)cc1 [Example 504, isopropyl 4-(2-p-tolyl-1H-benzo[d]imidazole-6-sulfonamido)benzoate]
